Source: ChEMBL document CHEMBL4483862, “Open-source discovery of chemical leads for next-generation chemoprotective antimalarials” (2018)

Test system: Plasmodium berghei
Experiment: Luciferase/luciferin-expressing antifolate-resistant parasites were used to infect a culture of HepG2 cells that were pre-incubated with compounds. Infected hepatocytes emit light due to the luciferase reaction. Assay results are presented as the percent inhibition of light emission compared to control. […]
Type: functional
Conditions: sporozoite; for IC90: read-out: LUCIFERASE INFECTION ASSAY - IC90
[1] = read-out: LUCIFERASE INFECTION ASSAY - IC50

| SMILES | IC90 | further results |
| --- | --- | --- |
| COc1c(Cl)cc(Cl)c(OC)c1C(=O)NC(=O)Nc1cc(C(F)(F)F)cc(C(F)(F)F)c1 | 2.23 µM | IC50 [1]: 2.06 µM |
| O=C(Nc1cccc(Cl)c1)c1cccc(NC(=O)c2cccs2)c1 | 9.24 µM | IC50 (HEPG2TOX_HILL_SLOPE 11.6, HEPG2TOX_R_SQUARED 0.635, PBLUC_HILL_SLOPE 2.89, PBLUC_R_SQUARED 0.488, read-out: LUCIFERASE INFECTION ASSAY - IC50): 4.32 µM |
| COc1ccccc1NS(=O)(=O)c1ccc2c(c1)N=Cc1c(F)cccc1O2 | > 10 µM | IC50 (FFLUC_HILL_SLOPE 2, FFLUC_R_SQUARED 0.88, HEPG2TOX_HILL_SLOPE 51.5, HEPG2TOX_R_SQUARED 0.639, PBLUC_HILL_SLOPE 12.2, PBLUC_R_SQUARED 0.289, read-out: LUCIFERASE INFECTION ASSAY - IC50): 9.2 µM |
| c1ccc(-n2nnnc2Sc2ncnc3sc4c(c23)CCC4)cc1 | > 10 µM | IC50 [1]: > 10 µM |
| CCOC(=O)c1c(-c2ccc(F)cc2)csc1NC(=O)CSc1nc2c(c(-c3ccccc3)c1C#N)C(=O)CC(C)(C)C2 | > 10 µM | IC50 (FFLUC_HILL_SLOPE 18.8, FFLUC_R_SQUARED 0.892, read-out: LUCIFERASE INFECTION ASSAY - IC50): > 10 µM |
| COc1cc(CN(C)C(=O)c2ccc3c(c2)S(=O)(=O)N=C2CCCCCN23)ccc1OC(F)F | > 10 µM | IC50 (HEPG2TOX_HILL_SLOPE 4.17, HEPG2TOX_R_SQUARED 0.672, PBLUC_HILL_SLOPE 0.764, PBLUC_R_SQUARED 0.62, read-out: LUCIFERASE INFECTION ASSAY - IC50): 1.97 µM |
| O=C(NC1CC1)c1ccc(-c2cnc3cnc(-c4cccs4)cn23)cc1 | > 9.16 µM | IC50 (PBLUC_HILL_SLOPE 1.19, PBLUC_R_SQUARED 0.184, read-out: LUCIFERASE INFECTION ASSAY - IC50): > 9.16 µM |
| CCc1cccc2c(/C=C(\C#N)c3nc4ccccc4[nH]3)c[nH]c12 | > 10 µM | IC50 (HEPG2TOX_HILL_SLOPE 6.57, HEPG2TOX_R_SQUARED 0.521, read-out: LUCIFERASE INFECTION ASSAY - IC50): > 10 µM |
| COc1cc(/C=N/NC(=S)Nc2cc(Cl)ccc2Cl)ccc1OS(=O)(=O)c1ccc(C)cc1 | > 6.29 µM | IC50 [1]: > 6.29 µM |
| CCOC(=O)c1ccc(Oc2nc3ccccc3nc2C(C#N)C(=O)OC)cc1 (stereo not given) | 7.6 µM | IC50 (PBLUC_HILL_SLOPE 5.75, PBLUC_R_SQUARED 0.407, read-out: LUCIFERASE INFECTION ASSAY - IC50): 5.19 µM |
| CC(C)(C)CC(C)(C)NC(=O)c1cccc(S(=O)(=O)N2CCc3ccccc32)c1 | > 10 µM | IC50 (HEPG2TOX_HILL_SLOPE 2.33, HEPG2TOX_R_SQUARED 0.906, PBLUC_HILL_SLOPE 19.2, PBLUC_R_SQUARED 0.577, read-out: LUCIFERASE INFECTION ASSAY - IC50): 9.58 µM |
| COc1ccc(C2=CS/C(=C(/C#N)c3nnc4n3CCCCC4)N2c2ccccc2)cc1 | > 10 µM | IC50 (PBLUC_HILL_SLOPE 18.4, PBLUC_R_SQUARED 0.0899, read-out: LUCIFERASE INFECTION ASSAY - IC50): 9.78 µM |
| O=c1c(Cl)c(Cl)cnn1CCOc1cccc(Br)c1 | > 10 µM | IC50 [1]: > 10 µM |
| CCOc1cc(/C=C(/C(=O)c2ccc(Br)cc2)c2nc3ccccc3[nH]2)ccc1O | 4.59 µM | IC50 (PBLUC_HILL_SLOPE 158, PBLUC_R_SQUARED 0.0148, read-out: LUCIFERASE INFECTION ASSAY - IC50): 4.53 µM |
| O=C(Nc1ccc(OC(F)(F)F)cc1)Nc1cncc(C(F)(F)F)c1 | 6.72 µM | IC50 (FFLUC_HILL_SLOPE 0.707, FFLUC_R_SQUARED 0.204, PBLUC_HILL_SLOPE 4.06, PBLUC_R_SQUARED 0.292, read-out: LUCIFERASE INFECTION ASSAY - IC50): 3.91 µM |
| CC(=O)Nc1ccc(Oc2ccnc3cc(Cl)ccc23)cc1 | > 10 µM | IC50 (PBLUC_HILL_SLOPE 1.43, PBLUC_R_SQUARED 0.691, read-out: LUCIFERASE INFECTION ASSAY - IC50): 3.48 µM |
| c1ccc(-c2nnc(CSC3=NCCS3)o2)cc1 | > 10 µM | IC50 [1]: > 10 µM |
| Cn1ccnc1CN(C(=O)c1cnn(-c2ccccc2)c1)C1CC1 | > 10 µM | IC50 [1]: > 10 µM |
| NNc1nc(C(F)(F)F)nc2c1cnn2Cc1ccccc1 | > 10 µM | IC50 (FFLUC_HILL_SLOPE 3.09, FFLUC_R_SQUARED 0.0505, read-out: LUCIFERASE INFECTION ASSAY - IC50): > 10 µM |
| O=C(NNC(=O)c1cc2cc(Cl)ccc2[nH]1)c1ccc(S(=O)(=O)N2CCCC2)cc1 | 9.83 µM | IC50 (HEPG2TOX_HILL_SLOPE 3.29, HEPG2TOX_R_SQUARED 0.977, PBLUC_HILL_SLOPE 10.3, 16.0, PBLUC_R_SQUARED 0.127, 0.622, read-out: LUCIFERASE INFECTION ASSAY - IC50): 8.54 µM |

| SMILES | IC90 | further results |
| --- | --- | --- |
| Nc1nccnc1C(=O)Nc1ccc(C23CC4CC(CC(C4)C2)C3)cc1 | 9.45 µM | IC50 (FFLUC_HILL_SLOPE 1.35, FFLUC_R_SQUARED 0.9, PBLUC_HILL_SLOPE 1.78, PBLUC_R_SQUARED 0.606, read-out: LUCIFERASE INFECTION ASSAY - IC50): 2.75 µM |
| COc1cc(C(=O)OCC#N)ccc1OCc1c(C)noc1C | > 10 µM | IC50 [1]: > 10 µM |
| CN(C)C(=O)c1ccc(-c2cc3c(Nc4cccc(OC(F)(F)F)c4)nccc3[nH]2)cc1 | > 10 µM | IC50 (HEPG2TOX_HILL_SLOPE 8.24, HEPG2TOX_R_SQUARED 0.393, PBLUC_HILL_SLOPE 3.02, PBLUC_R_SQUARED 0.574, read-out: LUCIFERASE INFECTION ASSAY - IC50): 4.92 µM |
| FC(F)(F)c1cnc(-n2cccc2/C=N/Nc2nc3ccccc3nc2C(F)(F)F)c(Cl)c1 | > 6.81 µM | IC50 (FFLUC_HILL_SLOPE 4.66, FFLUC_R_SQUARED 0.46, HEPG2TOX_HILL_SLOPE 16.5, HEPG2TOX_R_SQUARED 0.459, PBLUC_HILL_SLOPE 3.99, PBLUC_R_SQUARED 0.83, read-out: LUCIFERASE INFECTION ASSAY - IC50): 4.16 µM |
| Cc1csc(Sc2ncnc3c2cnn3C)n1 | > 2 µM | IC50 [1]: > 2 µM |
| Cc1cc(C2=NN/C(=N/C3CC3)SC2)c(C)n1-c1cccc(S(=O)(=O)N2CCOCC2)c1 | > 10 µM | IC50 (PBLUC_HILL_SLOPE 11.7, PBLUC_R_SQUARED 0.69, read-out: LUCIFERASE INFECTION ASSAY - IC50): 9.28 µM |
| CCc1cccc2c(C(=O)COC(=O)c3ccc(S(C)(=O)=O)c([N+](=O)[O-])c3)c[nH]c12 | 6.57 µM | IC50 (FFLUC_HILL_SLOPE 0.275, FFLUC_R_SQUARED 0.382, HEPG2TOX_HILL_SLOPE 0.775, HEPG2TOX_R_SQUARED 0.837, PBLUC_HILL_SLOPE 46.1, PBLUC_R_SQUARED 0.262, read-out: LUCIFERASE INFECTION ASSAY - IC50): 6.27 µM |
| NC(=O)c1c(NC(=O)N2CCC(Cc3ccccc3)CC2)sc2c1CCC2 | > 8.6 µM | IC50 (HEPG2TOX_HILL_SLOPE 1.79, HEPG2TOX_R_SQUARED 0.702, PBLUC_HILL_SLOPE 1.44, PBLUC_R_SQUARED 0.101, read-out: LUCIFERASE INFECTION ASSAY - IC50): 3.57 µM |
| COc1cc(-c2cnc3cnc(-c4ccc(CNc5ccccc5)cc4)cn23)cc(OC)c1OC | 5.78 µM | IC50 (PBLUC_HILL_SLOPE 3.28, PBLUC_R_SQUARED 0.672, read-out: LUCIFERASE INFECTION ASSAY - IC50): 2.96 µM |
| NC(Cc1ccccc1)c1csc(NC(=O)Nc2ccccc2-c2ccccc2)n1 (stereo not given) | > 7.96 µM | IC50 [1]: > 7.96 µM |
| O=C(/C=C/c1ccc([N+](=O)[O-])cc1)NCC(=O)N1CCN(S(=O)(=O)c2ccc(Cl)cc2)CC1 | 0.04 µM | IC50 (HEPG2TOX_HILL_SLOPE 0.532, HEPG2TOX_R_SQUARED 0.824, PBLUC_HILL_SLOPE 10.3, PBLUC_R_SQUARED 0.421, read-out: LUCIFERASE INFECTION ASSAY - IC50): 0.0324 µM |
| CC1C(OC(=O)c2ccc(CS(C)(=O)=O)cc2)CC2CC1C2(C)C (stereo not given) | > 10 µM | IC50 [1]: > 10 µM |
| C=CCN(C(=O)/C(=C/c1ccccc1)n1nnnc1C)c1nc(-c2ccccc2)cs1 | 5.71 µM | IC50 (HEPG2TOX_HILL_SLOPE 12.1, HEPG2TOX_R_SQUARED 0.931, PBLUC_HILL_SLOPE 6.74, 7.08, PBLUC_R_SQUARED 0.881, 0.796, read-out: LUCIFERASE INFECTION ASSAY - IC50): 4.16 µM |
| CCc1cc2c(Sc3nnc(N)s3)ncnc2s1 | > 11.2 µM | IC50 [1]: > 11.2 µM |
| CC(NC(=O)c1cnn(-c2ccc(C(F)(F)F)cn2)c1C(F)(F)F)C1CC2CCC1C2 (stereo not given) | 5.3 µM | IC50 (HEPG2TOX_HILL_SLOPE 11.2, HEPG2TOX_R_SQUARED 0.292, PBLUC_HILL_SLOPE 7.94, PBLUC_R_SQUARED 0.51, read-out: LUCIFERASE INFECTION ASSAY - IC50): 4.02 µM |
| Cc1cc(C)nc(SCC(=O)N2CCN(C(=O)c3ccco3)CC2)n1 | 3.74 µM | IC50 (PBLUC_HILL_SLOPE 11.5, PBLUC_R_SQUARED 0.424, read-out: LUCIFERASE INFECTION ASSAY - IC50): 3.09 µM |
| Cc1cc(O)cc2c1C(=O)/C(=C/c1ccccc1F)O2 | 11.8 µM | IC50 (FFLUC_HILL_SLOPE 1.55, FFLUC_R_SQUARED 0.688, HEPG2TOX_HILL_SLOPE 12, HEPG2TOX_R_SQUARED 0.541, PBLUC_HILL_SLOPE 35.8, PBLUC_R_SQUARED 0.416, read-out: LUCIFERASE INFECTION ASSAY - IC50): 11.1 µM |
| CCN(Cc1ccc(Cl)s1)C(=O)c1ccc(NC(=O)c2ccco2)cc1 | > 10 µM | IC50 (PBLUC_HILL_SLOPE 2.47, PBLUC_R_SQUARED 0.568, read-out: LUCIFERASE INFECTION ASSAY - IC50): 5.55 µM |
| COc1ccc([N+](=O)[O-])cc1C(=O)NCCOc1ccc2ccccc2c1 | > 10 µM | IC50 (PBLUC_HILL_SLOPE 24.5, PBLUC_R_SQUARED 0.535, read-out: LUCIFERASE INFECTION ASSAY - IC50): 9.5 µM |
| N#CC(C(=O)COC(=O)c1cc(Br)ccc1O)=C1Nc2ccccc2N1 | > 10 µM | IC50 (PBLUC_HILL_SLOPE 2.06, PBLUC_R_SQUARED 0.487, read-out: LUCIFERASE INFECTION ASSAY - IC50): 6.23 µM |
